In PubChem BioAssay (NCI):
Values joined by “and” are separate entries in the source; they are usually repeats but may differ in a detail not shown here. Equal values may be shown once.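 Briefly, cells in 96-well plates were exposed to five compound concentrations for 48 h, and endpoints were estimated by linear interpolation. The concentration for 50% growth inhibition is given as GI50. Definition used: TGI = concentration required for complete inhibition of growth.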 Where a SMILES comes first, the peptide text is derived from it. [ ]: non-standard residue; d: D form. The star is where a group is joined. Phe(4-NO2) = N[CH](Cc1ccc([N+](=O)[O-])cc1)C(=O)O; Boc = CC(C)(C)OC(=O)*

Experiments:
Assay in all cases: NCI-60 cell line screen, 48 h
HT29 colon = system: HT29 colon
K-562 leukemia = system: K-562 leukemia
SNB-19 CNS = system: SNB-19 CNS
A549 NSCLC = system: A549 NSCLC
OVCAR-3 ovarian = system: OVCAR-3 ovarian
NCI/ADR-RES ovarian = system: NCI/ADR-RES ovarian
NCI-H23 lung = system: NCI-H23 lung
SF-268 CNS = system: SF-268 CNS
BT-549 breast = system: BT-549 breast
CCRF-CEM leukemia = system: CCRF-CEM leukemia

Row | SMILES | TGI (HT29 colon) [µM] | TGI (K-562 leukemia) [µM] | TGI (SNB-19 CNS) [µM] | TGI (A549 NSCLC) [µM] | TGI (OVCAR-3 ovarian) [µM] | TGI (NCI/ADR-RES ovarian) [µM] | TGI (NCI-H23 lung) [µM] | TGI (SF-268 CNS) [µM] | TGI (BT-549 breast) [µM] | GI50 (HT29 colon) [µM] | GI50 (K-562 leukemia) [µM] | GI50 (CCRF-CEM leukemia) [µM] | TGI (CCRF-CEM leukemia) | GI50 (A549 NSCLC) [µM] | GI50 (OVCAR-3 ovarian) [µM] | GI50 (NCI/ADR-RES ovarian) [µM] | GI50 (NCI-H23 lung) [µM] | GI50 (SF-268 CNS) [µM] | GI50 (SNB-19 CNS) [µM]
1 | S=C1C(=Nc2ccccc2)N(c2ccccc2)/C(=N\c2cccc[n+]2Cc2ccccc2)N1c1ccccc1 | 43 | > 100 | 34.8 | 52.7 | 54.3 | > 100 | 35.4 | 48.4 | 27.4 |  |  |  |  |  |  |  |  |  | 
2 | COc1cc2nc(N3CCC[C@H](NC4=CC(=O)c5ccccc5C4=O)C3)nc(N)c2cc1OC | 4.07 | 1.42 |  | 4 | 3.43 | 5.44 | 4.13 | 3.61 |  | 2.02 | 0.348 | 1.79 | 5.45 µM | 2.23 | 1.89 | 2.34 | 1.99 | 1.82 | 
3 | COc1cc2c3c(n(C)c(=O)c2cc1OC)-c1cc2c(cc1/C3=C\CCCCCBr)OCO2 | > 100 | 30.2 | > 100 | > 100 |  | > 100 | > 100 | > 100 | > 100 |  |  |  | 38.3 µM |  |  |  |  |  | 
4 | Cc1ccc(S(=O)(=O)OCCC2CN(C(=O)OCc3ccccc3)C(C)(C)O2)cc1 (centres undefined) |  | > 100 | 27.3 | > 100 | > 100 | 15.7 | 13.5 |  | 5.97 |  |  |  | > 100 µM |  |  |  |  |  | 
5 | Cc1cc(N2CCCCC2)nc2ccc(Cc3ccc4nc(N5CCCCC5)cc(C)c4c3)cc12 | > 100 | > 100 | > 100 | > 100 | > 100 | > 100 | > 100 | > 100 | > 100 |  |  |  |  |  |  |  |  |  | 
6 | Cn1c2ccccc2n2c3ncccc3c(=O)cc12 | > 100 | > 100 | > 100 | > 100 | > 100 | > 100 | > 100 | > 100 | > 100 |  |  |  |  |  |  |  |  |  | 
7 | CC/C=C/c1cc2c(cc1O)CCC1C2CC[C@@]2(C)C1CC[C@@H]2O (some centres undefined) | 21.1 | 7.66 | 17.4 | 20 | 1.6 | 5.67 | 20.2 | 24.8 |  |  |  |  | 14.8 µM |  |  |  |  |  | 
8 | CC(=O)CC(=O)N1CCSC1=S | > 10 | > 10 | > 10 | > 10 | > 10 |  | > 10 | > 10 | > 10 |  |  |  | > 10 µM |  |  |  |  |  | 
9 | COc1ccc(/C=c2\[nH]c3nc(=O)c(N4CCCCC4)c(N)n3c2=O)cc1 | > 100 | > 100 | > 100 | > 100 |  | > 100 | > 100 | > 100 |  |  |  |  | > 100 µM |  |  |  |  |  | 
10 | CC(C)[C@H](C)/C=C/[C@@H](C)C1CC[C@H]2[C@@]34C=C[C@]5(C[C@@H](O)CC[C@]5(C)[C@H]3CC[C@]12C)OO4 (some centres undefined) | 53.7 |  | 81.7 | > 100 | > 100 | 50.2 | 92.5 | > 100 | 92.7 |  |  |  |  |  |  |  |  |  | 
11 | O=C1C(N2CCN(CCOCCO)CC2)=C(Cl)C(=O)c2ncccc21 | 46 | 34.4 |  | > 100 | 32.7 | > 100 | 42.5 | 44.5 | 8.33 |  | 13.3 | 13.5 | 4.44 µM and 35.9 µM | > 100 |  |  |  |  | 
12 | O=C(O)CSC1=NNC2(C(=O)N1)c1ccccc1-c1ccccc12 | > 10 | > 10 | > 10 | > 10 |  | > 10 | > 10 | > 10 | > 10 |  |  |  | > 10 µM |  |  |  |  |  | 
13 | COc1ccc(/C=C2\CCCc3ccccc3C2=O)cc1 | 14.6 | > 100 |  | > 54.4 | 0.422 | > 100 | 7.76 | 5.53 | 17.3 |  |  |  | 24.8 µM |  |  |  |  |  | 
14 | O=[N+]([O-])c1ccc(N2N=C(c3c(O)ccc4ccccc34)CC2c2ccc(Cl)cc2)c([N+](=O)[O-])c1 (centres undefined) | 67 | 45.6 |  | 88.1 | > 100 | 55.6 | > 100 | > 100 | > 100 |  |  |  | 31 µM |  |  |  |  |  | 
15 | C=C(Br)C[N+]12CN3CN(CN(C3)C1)C2 | > 100 | > 100 | > 100 | > 100 | > 100 | > 100 | > 100 | > 100 |  |  |  |  | > 100 µM |  |  |  |  |  | 
16 | CC(CCc1nc2ccccc2s1)(c1ccc(O)cc1)c1ccc(O)cc1 | 38.4 | 47.2 | 34.8 | 38.2 | 31.3 | 57.2 | 32 | 40.5 | 39.7 |  |  |  |  |  |  |  |  |  | 

Row | SMILES | TGI (HT29 colon) [µM] | TGI (K-562 leukemia) [µM] | TGI (SNB-19 CNS) [µM] | TGI (A549 NSCLC) [µM] | TGI (OVCAR-3 ovarian) [µM] | TGI (NCI/ADR-RES ovarian) [µM] | TGI (NCI-H23 lung) [µM] | TGI (SF-268 CNS) [µM] | TGI (BT-549 breast) [µM] | GI50 (HT29 colon) [µM] | GI50 (K-562 leukemia) [µM] | GI50 (CCRF-CEM leukemia) [µM] | TGI (CCRF-CEM leukemia) | GI50 (A549 NSCLC) [µM] | GI50 (OVCAR-3 ovarian) [µM] | GI50 (NCI/ADR-RES ovarian) [µM] | GI50 (NCI-H23 lung) [µM] | GI50 (SF-268 CNS) [µM] | GI50 (SNB-19 CNS) [µM]
17 | O=C1CC(c2ccsc2)n2cccc21 (centres undefined) | > 100 | > 100 | > 100 | > 100 | > 100 | > 100 | > 100 | > 100 |  |  |  |  | > 100 µM |  |  |  |  |  | 
18 | COC(=O)c1c2c(cc3c1CC1(Cc4cc5c(c(C)c4C1)CCC5)C3)CCC2 (centres undefined) | > 100 | > 100 | > 100 | > 100 | > 100 | > 100 | > 100 | > 100 |  |  |  |  | > 100 µM |  |  |  |  |  | 
19 | Oc1ccc(Cl)cc1-c1cc(-c2ccccc2)nc(=S)[nH]1 | > 100 | > 100 | > 100 | > 100 | > 100 | > 100 | > 100 | 77.7 |  |  |  |  | > 100 µM |  |  |  |  |  | 
20 | Oc1ccc2ccccc2c1OCc1nnc(CCCCCCCCc2nnc(COc3c(O)ccc4ccccc34)n2Nc2ccccc2)n1Nc1ccccc1 | 36.3 | > 100 | > 100 | > 100 | 32.1 | 56.9 | > 75.2 | > 100 | 77.7 |  |  |  |  |  |  |  |  |  | 
21 | O=C1c2ccncc2C(=O)c2c(O)ccc(O)c21 | 7.74 | 55.5 | 24.8 | 18.1 | 5.81 |  |  | 24.2 |  |  |  |  | 32.7 µM |  |  |  |  |  | 
22 | COc1cccc(C(C#N)NNC(=O)c2c(Cl)c(Cl)c(Cl)c(Cl)c2-c2nc3ccc(C(=O)c4ccccc4)cc3[nH]2)c1O (centres undefined) | > 100 | > 100 | 24.7 | > 100 |  |  | > 100 |  | > 100 |  |  |  | > 100 µM |  |  |  |  |  | 
23 | CC(=O)/C=C/c1ccccc1 | > 100 | > 100 | > 100 | > 100 |  | > 100 | 85.5 | > 100 |  |  |  |  | > 100 µM |  |  |  |  |  | 
24 | Cc1cn(C2CC(COCc3ccccc3)N(CCO[Si](C)(C)C(C)(C)C)O2)c(=O)[nH]c1=O (centres undefined) | 28.7 | 19.3 | 27.2 | 28.4 | 28.4 | 28.9 | 30.7 | 35.7 |  |  |  |  |  |  |  |  |  |  | 
25 | CCOC(=O)CCC(NC(=O)C(Cc1ccc([N+](=O)[O-])cc1)NC(=O)OC(C)(C)C)C(=O)NC(CCC(=O)OCC)C(=O)OCC (centres undefined) (Boc-[Phe(4-NO2)]-Glu(OEt)-Glu(OEt)-OEt; configuration not given here) | 31.5 |  | > 100 | > 100 |  |  | 31.8 |  | 45.1 |  |  |  |  |  |  |  |  |  | 
26 | Cc1cc2nc3ccccc3n2c2ccccc12 | > 10 | > 10 | > 10 | > 10 | > 10 | > 10 | > 10 | > 10 |  |  |  |  | > 10 µM |  |  |  |  |  | 
27 | Nc1ccc2c(=O)cc(-c3ccc(Br)s3)[nH]c2n1 | > 44.2 | > 100 | > 100 | > 44.8 | > 100 | > 26.9 | > 23.4 | > 100 |  |  |  |  | > 100 µM |  |  |  |  |  | 
28 | Cc1cc(C)c2c(c1)C/C(=C\c1cccc(C)c1C(=O)O)C2=O | > 100 | > 100 | > 100 | > 100 | > 100 |  | > 100 | > 100 | > 100 |  |  |  | > 100 µM |  |  |  |  |  | 
29 | Cc1ccc(N2C(=O)C3CSCN3C2=O)cc1 (centres undefined) | > 100 | > 100 | > 100 | > 100 | > 100 | > 100 | > 100 | > 100 |  |  |  |  | > 100 µM |  |  |  |  |  | 
30 | O=S(=O)(/N=S(/Nc1ccccc1)C(F)(F)Cl)c1ccccc1 (centres undefined) | > 100 | > 100 | > 100 | > 100 | > 100 | > 100 | > 100 | > 100 |  |  |  |  | > 100 µM |  |  |  |  |  | 
31 | Clc1ccc(-c2nn3c(COc4cccc(OCc5nnc6sc(-c7ccc(Cl)cc7)nn56)c4)nnc3s2)cc1 | 60.2 | > 100 | > 100 | 73.2 | 44 | > 100 | 71.3 | > 100 | > 100 |  |  |  |  |  |  |  |  |  | 
32 | O=C(Nc1ccc(-n2cc(-c3ccncc3)c(-c3ccc(O)c(Cl)c3)n2)cc1)c1ccc(Cl)c(C(F)(F)F)c1 | 2.72 | > 50 | > 50 | > 50 | 7.33 | > 50 | > 50 | > 50 |  | 1.2 | 1.37 | 0.275 | > 50 µM | 2.09 | 1.63 | 2.57 | 2.55 | 2.79 | 2.52
